# Experimental data as given in patent publication US20230111310A1, “CARBOXYLIC ACID DERIVATIVE-SUBSTITUTED IMINO ARYL COMPOUND, PREPARATION METHOD THEREFOR, HERBICIDAL COMPOSITION AND USE THEREOF” (Qingdao Kingagroot Chemical Compound Co., Ltd., priority 2020, published 2023).
# Key:
# Test in all cases: Weeding effect in post-emergence stage
# Type in all cases: in vivo
# Settings in all cases: Dose 15 g/ha; fresh weight control rate level
# [1] = system: Alopecurus japonicus
# Method in brief: (§1)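 Weeds were treated post-emergence at 2-3 leaves with compound doses from 7.5 up to 500 g/ha, formulated in acetone–Tween 80 with methyl oleate synergist. Efficacy was assessed as growth control after 3 weeks.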
# [2] = system: Digitaria sanguinalis
# Method in brief: as §1
# [3] = system: Abutilon theophrasti
# Method in brief: as §1
# [4] = system: Eleusine indica
# Method in brief: as §1
# [5] = system: Setaria viridis
# Method in brief: as §1
# [6] = system: Echinochloa crusgalli
# Method in brief: as §1
Compound,"Weeding effect in post-emergence stage, Alopecurus japonicus (level) [1]","Weeding effect in post-emergence stage, Digitaria sanguinalis (level) [2]","Weeding effect in post-emergence stage, Abutilon theophrasti (level) [3]","Weeding effect in post-emergence stage, Eleusine indica (level) [4]","Weeding effect in post-emergence stage, Setaria viridis (level) [5]","Weeding effect in post-emergence stage, Echinochloa crusgalli (level) [6]"
CC(C#N)OC(=O)C(C)O/N=C/c1cc(-n2c(=O)cc(C(F)(F)F)n(C)c2=O)c(F)cc1Cl (stereo not drawn) [Compound 443],5 (Level 5: growth control rate is above 85%),5 (Level 5: growth control rate is above 85%),5 (Level 5: growth control rate is above 85%),5 (Level 5: growth control rate is above 85%),5 (Level 5: growth control rate is above 85%),5 (Level 5: growth control rate is above 85%)
CC(CC#N)OC(=O)C(C)O/N=C/c1cc(-n2c(=O)cc(C(F)(F)F)n(C)c2=O)c(F)cc1Cl (stereo not drawn) [Compound 444],5 (Level 5: growth control rate is above 85%),5 (Level 5: growth control rate is above 85%),5 (Level 5: growth control rate is above 85%),5 (Level 5: growth control rate is above 85%),5 (Level 5: growth control rate is above 85%),5 (Level 5: growth control rate is above 85%)
CC(C#N)COC(=O)C(C)O/N=C/c1cc(-n2c(=O)cc(C(F)(F)F)n(C)c2=O)c(F)cc1Cl (stereo not drawn) [Compound 445],5 (Level 5: growth control rate is above 85%),5 (Level 5: growth control rate is above 85%),5 (Level 5: growth control rate is above 85%),5 (Level 5: growth control rate is above 85%),5 (Level 5: growth control rate is above 85%),5 (Level 5: growth control rate is above 85%)
CC(O/N=C/c1cc(-n2c(=O)cc(C(F)(F)F)n(C)c2=O)c(F)cc1Cl)C(=O)OCCCC#N (stereo not drawn) [Compound 446],5 (Level 5: growth control rate is above 85%),5 (Level 5: growth control rate is above 85%),5 (Level 5: growth control rate is above 85%),5 (Level 5: growth control rate is above 85%),5 (Level 5: growth control rate is above 85%),5 (Level 5: growth control rate is above 85%)
CC(O/N=C/c1cc(-n2c(=O)cc(C(F)(F)F)n(C)c2=O)c(F)cc1Cl)C(=O)OCC1(C#N)CC1 (stereo not drawn) [Compound 447],5 (Level 5: growth control rate is above 85%),5 (Level 5: growth control rate is above 85%),5 (Level 5: growth control rate is above 85%),5 (Level 5: growth control rate is above 85%),5 (Level 5: growth control rate is above 85%),5 (Level 5: growth control rate is above 85%)
CC(O/N=C/c1cc(-n2c(=O)cc(C(F)(F)F)n(C)c2=O)c(F)cc1Cl)C(=O)OCCN(C)C (stereo not drawn) [Compound 448],5 (Level 5: growth control rate is above 85%),5 (Level 5: growth control rate is above 85%),5 (Level 5: growth control rate is above 85%),5 (Level 5: growth control rate is above 85%),5 (Level 5: growth control rate is above 85%),5 (Level 5: growth control rate is above 85%)
CC(=NOC(=O)C(C)ON=Cc1cc(-n2c(=O)cc(C(F)(F)F)n(C)c2=O)c(F)cc1Cl)C(C)(C)C (stereo not drawn) [Compound 449],5 (Level 5: growth control rate is above 85%),5 (Level 5: growth control rate is above 85%),5 (Level 5: growth control rate is above 85%),5 (Level 5: growth control rate is above 85%),5 (Level 5: growth control rate is above 85%),5 (Level 5: growth control rate is above 85%)
CC(=NOC(=O)C(C)ON=Cc1cc(-n2c(=O)cc(C(F)(F)F)n(C)c2=O)c(F)cc1Cl)C1CC1 (stereo not drawn) [Compound 450],5 (Level 5: growth control rate is above 85%),5 (Level 5: growth control rate is above 85%),5 (Level 5: growth control rate is above 85%),5 (Level 5: growth control rate is above 85%),5 (Level 5: growth control rate is above 85%),5 (Level 5: growth control rate is above 85%)
